What was measured:
SfMCT [1] = biological target: T1, SfMCT (Syntrophobacter fumaroxidans, UniProt A0LNN5); experiment: Micro pH electrode-based transport assay, SfMCT-expressing E. coli JA202; assay type: cell-based; conditions: 10 mM compound (pH 6.5) added to bacterial suspension pH 6.7
T1 construct: expressed in transfected cells; host or cells: E. coli JA202 (MC4100 glcA::cat lldP::kan), plasmid pEXT20-SfMCT-3C-10His
T1 sequence (A0LNN5 1-412): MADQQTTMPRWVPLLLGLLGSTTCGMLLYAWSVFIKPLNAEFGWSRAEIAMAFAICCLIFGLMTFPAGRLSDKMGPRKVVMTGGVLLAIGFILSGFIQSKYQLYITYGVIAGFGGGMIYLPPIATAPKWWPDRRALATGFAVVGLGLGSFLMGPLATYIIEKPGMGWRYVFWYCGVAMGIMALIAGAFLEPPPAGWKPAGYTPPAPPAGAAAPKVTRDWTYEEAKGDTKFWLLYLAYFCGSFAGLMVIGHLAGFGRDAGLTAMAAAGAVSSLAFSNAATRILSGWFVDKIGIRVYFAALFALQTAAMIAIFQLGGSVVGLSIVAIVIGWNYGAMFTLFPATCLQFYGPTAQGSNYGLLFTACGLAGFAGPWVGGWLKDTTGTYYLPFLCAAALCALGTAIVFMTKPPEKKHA
Description: A measuring set up as previously reported[18] was used for micro pH electrode-based transport measurements. SfMCT was expressed in E. coli JA202 (MC4100 glcA::cat lldP::kan)[15] as described for uptake experiments. After expression, bacteria were pelleted (5,200 × g, 10 min, room temperature), washed twice in assay solution (250 mM KCl, 1 mM MgSO4, 2 mM CaCl2; 5,200 × g, 10 min, room temperature) and finally resuspended in assay solution to a bacterial density of OD600 15. Compounds that were assayed for proton-coupled transport were dissolved in assay solution and the pH was adjusted to 6.5. 800 µl of bacteria suspension were transferred into a 2 ml reaction tube (Eppendorf) and the pH value of the bacterial suspension (extracellular medium) was measured using a micro pH electrode with integrated temperature sensor (InLab Micro Pro, Mettler Toledo) under constant stirring. The pH of the bacterial suspension was adjusted to pH 6.7 using potassium hydroxide and hydrochloric acid. The SevenCompact pH-meter (Mettler Toledo), together with LabX direct pH 2.3 software (Mettler Toledo), were used for automatic recording in 15 s intervals. Measurements were initiated by adding 10 mM of the corresponding compound to the bacterial suspension. All experiments were performed at 24 °C.

SfMCT [2] = biological target: T1, SfMCT; experiment: Uptake of [14C]L-lactate and other radiolabeled monocarboxylates into SfMCT expressing E. coli JA202; assay type: cell-based
Description: The cultures were grown at 37 °C and 180 r.p.m. in an incubator shaker (Multitron, Infors HT). Protein expression was induced at OD600 ~0.5 by addition of IPTG to a final concentration of 0.25 mM. After 4 h, bacteria were pelleted (5,200 × g, 10 min, room temperature) and resuspended in uptake buffer (20 mM Bis-Tris propane-HCl (pH 6.7), 250 mM KCl) to a bacteria density of OD600 12. […] Furthermore, [3-3 H] propionic acid sodium salt ([^3H]propionate, American Radiolabeled Chemicals, specific activity 30 Ci/mmol), n-[2,3-3 H] butyric acid sodium salt ([^3H]butyrate, American Radiolabeled Chemicals, specific activity 120 Ci/mmol), and [1–14 C] pyruvic acid sodium salt ([^14C]pyruvate, specific activity 0.055 Ci/mmol American Radiolabeled Chemicals) were also used for transport experiments. […] Uptake experiments were performed in 2 ml reaction tubes (Eppendorf) at 30 °C under agitation (1,000 r.p.m., Thermomixer compact, Eppendorf). […] Bacteria were immediately pelleted by centrifugation (21,000 × g, 4 min, room temperature) and washed two times with 900 μl stop buffer. Finally, bacteria were lyzed in 50 μl 5% (w/v) sodium dodecylsulfate and transferred into a white 96-well plate (Optiplate, PerkinElmer). 150 µl of scintillation cocktail (MicroScint 40, PerkinElmer) were added before measuring each reaction for 2 min with a scintillation counter (TopCount NXT, PerkinElmer). For data analysis, the signal of the empty vector was subtracted from the transporter signal. […] Cpm values of each experiment were normalized with respect to the determined upper plateau value, i.e., the fitted upper plateau value corresponds to 100%. The arithmetic average of three independent experiments was calculated. Three independent and normalized pH-dependence curves were then averaged. For data analysis Prism6 (GraphPad Software) was used. […] Equal amounts of bacteria expressing SfMCT variants were loaded on 14% SDS/polyacrylamide gels. His-tagged transporters were detected using an anti-His5 (Qiagen, catalogue number 34660, primary antibody) at a dilution of 1:3,000 and a goat anti-mouse IgG (H + L) HRP conjugate antibody (Biorad, catalogue number 172-1011, secondary antibody) at a dilution of 1:2,500.

MCT1 (SLC16A1) = conditions: MCT1, L-lactate; cited from earlier work
MCT4 (SLC16A3) = conditions: MCT4, L-lactate; cited from earlier work

C[C@H](O)C(=O)O [L-lactate]
proton-coupled transport, change of extracellular pH (in words) (SfMCT [1]): immediate pH increase | Uptake of radioligand by SfMCT (cpm) (SfMCT [2]; 0.1 µCi radiolabeled monocarboxylate, SfMCT-overexpressing bacteria): 10963 cpm | Uptake of [14C]L-lactate by SfMCT (cpm) (SfMCT [2]; Time 30 min): 8927.33 cpm | Net uptake of [14C]L-lactate through SfMCT (cpm) (SfMCT [2]; Time 30 min, SfMCT minus vector): 7196.33 cpm | Uptake of [14C]L-lactate (SfMCT [2]; [L-lactate] 500 µM): 253.382 pmol | Uptake of [14C]L-lactate (SfMCT [2]; [L-lactate] 750 µM): 287.925 pmol | Km (MCT1 (SLC16A1)): 3 to 5 mM | Km (MCT4 (SLC16A3)): 20 to 35 mM

— article PMC6573034 (Nature Communications, 2019)
